Earlier results as cited in patent publication US20250170152A1, “Cannabinoid Dosage Form” (priority 2022, published 2025).
Where two headings read alike, the source gives them in different places.

Assays:
[1] = oral THC formulations
[2] = not given; remark: listed apart in the source
[3] = oral 800 mg CBD, eight subjects (Haney et al., 2016)
[4] = 20 mg/kg/day CBD groups, EMA LGS/DS Assessment Report (Epidiolex)

| Compound | delay to reach peak plasma concentration [1] | mean Cmax (one hour after oral capsule containing 5.4 mg CBD (Nadulski et al., 2005a)) | mean Cmax (oral 10 mg CBD (Guy and Robson, 2004b)) | mean Cmax [3] | mean Tmax [3] | time CBD remained detectable after administration (oral capsule 5.4 mg CBD (Nadulski et al., 2005b)) | mean Cmax (oral capsule 5.4 mg CBD, subset (n=12) with standard breakfast meal 1 h after the capsules) | TEAE decrease of appetite, incidence [2, 4] | weight loss, incidence [2, 4] | TEAE of diarrhoea, incidence ([2]; 5-20 mg/kg/day, LGS/DS population (Epidiolex)) | TEAE of diarrhoea, incidence ([2]; 25-50 mg/kg/day, TSC population, EMA TSC Assessment Report (Epidiolex)) |
| --- | --- | --- | --- | --- | --- | --- | --- | --- | --- | --- | --- |
| CCCCCc1cc(O)c2c(c1)OC(C)(C)[C@@H]1CCC(C)=C[C@@H]21 [THC, delta-9-tetrahydrocannabinol] | ~120 min | – | – | – | – | – | – | – | – | – | – |
| C=C(C)C1CCC(C)=CC1c1c(O)cc(CCCCC)cc1O (centres unmarked) [CBD, 2-[3-methyl-6-(1-methylethenyl)-2-cyclohexen-1-yl]-5-pentyl-1,3-benzenediol] | – | 0.93 ng/mL | 2.47 ng/mL | 77.9 ng/mL | 3.0 h | 3 to 4 h | 1.13 ng/mL | 22% | 11% | 12.9-21.2% | 30.7-56.2% |
